According to article PMC12662201, “How ATP and dATP reposition class III ribonucleotide reductase cone domains to regulate enzyme activity” (Science Advances, 2025):

Key:
StNrdD (WT-StNrdD) = target: T1, StNrdD (WT-StNrdD) (Streptococcus thermophilus, UniProt A0A3G6JS83); experiment: cryo-EM ([…] Å); format: binding; conditions: allosteric specificity effector site at dimer interface; seen with both ATP and dATP; 1 mM TTP, 1 mM GTP, pH 7.5
T1 construct: gene DF198_09700; full length, 734 residues, N-terminal His6 with thrombin site (pET15b), tag cleaved before crystallization; expressed in E. coli T7 Express; dimer; Cys400 thiyl, Gly697 glycyl radical
T1 sequence (A0A3G6JS83 1-734): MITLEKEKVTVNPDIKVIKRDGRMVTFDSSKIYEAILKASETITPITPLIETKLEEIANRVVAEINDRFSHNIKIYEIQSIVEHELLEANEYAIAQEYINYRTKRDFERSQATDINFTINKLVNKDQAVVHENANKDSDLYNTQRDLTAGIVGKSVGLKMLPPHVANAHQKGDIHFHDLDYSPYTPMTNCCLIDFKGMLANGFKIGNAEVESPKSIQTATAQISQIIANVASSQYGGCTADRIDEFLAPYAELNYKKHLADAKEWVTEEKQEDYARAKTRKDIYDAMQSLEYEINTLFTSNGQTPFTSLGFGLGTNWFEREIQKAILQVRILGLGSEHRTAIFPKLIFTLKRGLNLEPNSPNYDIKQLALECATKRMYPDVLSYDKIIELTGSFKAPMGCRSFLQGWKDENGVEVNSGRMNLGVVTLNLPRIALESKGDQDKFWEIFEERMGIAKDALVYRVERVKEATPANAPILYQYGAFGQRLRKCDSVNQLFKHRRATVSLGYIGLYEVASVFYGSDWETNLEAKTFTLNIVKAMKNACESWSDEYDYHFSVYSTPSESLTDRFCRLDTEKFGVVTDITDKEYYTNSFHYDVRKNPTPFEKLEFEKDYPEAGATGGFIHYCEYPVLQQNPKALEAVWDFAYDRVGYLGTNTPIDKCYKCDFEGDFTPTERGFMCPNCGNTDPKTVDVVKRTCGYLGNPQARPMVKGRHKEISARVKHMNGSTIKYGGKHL

ΔConeOnly-StNrdD = target: T2, ΔConeOnly-StNrdD (Streptococcus thermophilus, UniProt A0A3G6JS83); experiment: LC-MS/MS of dGTP product after glycyl radical activation; format: biochemical; conditions: 1 mM GTP, 1 mM TTP, no activity effector; 0.15 µM glycyl radical; 37 °C, 120 s; anaerobic
T2 construct: gene DF198_09700; cone domain removed (residues 1 to 115 deleted), connector kept; N-terminal His6 with thrombin site (pET15b); expressed in E. coli T7 Express
T2 sequence (A0A3G6JS83 116-734): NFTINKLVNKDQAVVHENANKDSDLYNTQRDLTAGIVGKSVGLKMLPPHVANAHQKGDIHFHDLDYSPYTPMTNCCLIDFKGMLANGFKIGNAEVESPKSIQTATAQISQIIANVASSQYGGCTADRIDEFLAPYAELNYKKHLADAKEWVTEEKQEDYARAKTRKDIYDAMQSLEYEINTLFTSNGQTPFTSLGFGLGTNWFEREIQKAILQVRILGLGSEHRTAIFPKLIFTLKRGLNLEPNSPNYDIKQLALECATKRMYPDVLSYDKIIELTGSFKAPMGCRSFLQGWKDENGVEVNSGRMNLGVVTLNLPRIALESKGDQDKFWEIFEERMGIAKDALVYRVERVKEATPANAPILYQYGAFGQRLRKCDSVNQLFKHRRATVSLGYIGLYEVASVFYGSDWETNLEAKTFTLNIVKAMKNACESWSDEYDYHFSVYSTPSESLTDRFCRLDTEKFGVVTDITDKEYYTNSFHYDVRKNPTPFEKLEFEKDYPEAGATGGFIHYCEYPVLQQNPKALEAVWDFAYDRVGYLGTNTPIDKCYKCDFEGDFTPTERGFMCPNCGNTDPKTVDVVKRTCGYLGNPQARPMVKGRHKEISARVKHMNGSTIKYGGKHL

Row | SMILES | cryo-EM (3.6 Å) (StNrdD (WT-StNrdD)) | LC-MS/MS of dGTP product after glycyl radical activation (ΔConeOnly-StNrdD)
1 | Cc1cn([C@H]2C[C@H](O)[C@@H](COP(=O)(O)OP(=O)(O)OP(=O)(O)O)O2)c(=O)[nH]c1=O [TTP] | both structures have density for the TTP specificity effector bound at the dimer interface | –
2 | Nc1nc2c(ncn2[C@@H]2O[C@H](COP(=O)(O)OP(=O)(O)OP(=O)(O)O)[C@@H](O)[C@H]2O)c(=O)[nH]1 [GTP] | – | GTP turnover proceeds in the absence of allosteric inhibitor dATP, although at a lower yield
